From EP1961738A1, “New compounds with antiglutamatergic properties and uses thereof” (Faust Pharmaceuticals, priority 2007, dated 2008)

Test system: cerebrospinal fluid glutamate level
Experiment: Intracerebroventricular retrodialysis in rats with enzymatic chemiluminescent glutamate determination in microdialysates
Type: in vivo, Sprague-Dawley rats
Experimental: For this example, intracerebroventricular retrodialysis was performed on rats according to techniques known to those skilled in the art. The analysis of microdialysates was performed according to Israël and collaborators' publication (Neurochem Int 22(1): 53-58, 1993). Procedures are described below:
Surgery was performed on adult male Sprague-Dawley rats weighing 330-340g at the time of surgery. Following induction of anaesthesia with intraperitoneal administration of ketamine/xylazine, animals were secured in a stereotaxic frame in the flat-skull position at a constant setting of -3.3mm between ear and incisor bars. After defining the "stereotaxic zero" in accordance with Paxinos and Watson's atlas (1986), a microdialysis guide cannula was directed towards the right lateral ventricle with the coordinates from Bregma: anteroposterior -0.8mm, mediolateral +1.5mm, and dorsoventral (DV) -1.5mm (CMA12 probe: 2mm membrane) (Khandewal et al., J Neurosci Methods 133(1-2): 181-189, 2004).
The guide cannula was fixed to the skull using dental cement and three stainless steel screws. […]
Samples were subsequently analysed for glutamate determination using an enzymatic assay (Israël et al., 1993). The procedure is based on the oxidation of L-glutamate […] with subsequent NADH production, the NADH being continuously evaluated using the photobacterium chemiluminescent reaction at 460-490nm. […]

Which results are given for `NC(=O)NN=C1C=Cc2ccc(OCCN3CCOCC3)cc2C1=O` [Example 13, 7-(2-morpholin-4-yl-ethoxy) naphtalene-1,2-dione2-semicarbazone]?
response of cerebrospinal fluid glutamate level to the compound (rat C (one rat out of five), 30µM solution by retrodialysis for 40min): did not response; decrease of the cerebrospinal fluid glutamate level (rats A, B, D and E (four of five), 30µM solution by retrodialysis for 40min into right lateral ventricle, after 80 minutes, relative to baseline set at 100%): up to 50%
